From patent US8946301B2, “Targeting of T-lymphocytes to treat amyotrophic lateral sclerosis” (ALS Therapy Development Institute, priority 2011, dated 2015)
“Also recorded” adds a separate entry of the source. Like-named read-outs stand apart in the source and are kept apart here.

Tests used:
[1] = Pharmacokinetic profile of fingolimod in plasma and spinal cord of SOD1 mice; format: in vivo; settings: G93A-SOD1 transgenic, mouse, male SOD1 mice, single IP bolus 6.7 mg/kg
Protocol: FIG. 1A is a chart showing the plasma pharmacokinetic profile for fingolimod in male SOD1 mice after a single IP bolus 6.7 mg/kg.
FIG. 1B is a chart showing the spinal cord pharmacokinetic profile for fingolimod in male SOD1 mice after a single IP bolus 6.7 mg/kg.
The pharmacokinetic study provided reagent distribution and elimination parameters in order to guide future in vivo studies. […] Because of the longer than usual half-life of fingolimod, the time points for PK harvest extended beyond the typical 9 point small molecule PK study executed at ALS Therapy Development Institute (ALSTDI, Cambridge, Mass.). Time points included 0, 0.083 hours, 0.25 hours, 0.5 hours, 0.75 hours, 1 hour, 2 hours, 4 hours, 6 hours, 8 hours, 12 hours, 24 hours, 48 hours, 72 hours, and 96 hours.
G93A-SOD1 transgenic mice (shortened to “SOD1 mice”) are mutant for superoxide dismutase 1 (SOD1) and are used as a disease model because of the phenotypic and pathologic resemblance to sporadic and familial human ALS. The SOD1 mice overexpress the superoxide dismutase, CCS, to develop an accelerated disease course that is associated with enhanced mitochondrial pathology and increased mitochondrial localization of mutant SOD1. The results of the fingolimod concentration studies were consistent with published reports for fingolimod in other tissues and models. Tissues analyzed included plasma (FIG. 1A) and spinal cord (FIG. 1B). Fingolimod treated animals were then divided into two groups using two separate doping regimens: • Low Dose Fingolimod Group: IP Load 0.44 mg/kg, Maintenance 0.32 mg/kg every 7 days (q7d), and • High Dose Fingolimod Group: IP Load 2.5 mg/kg, Maintenance 1.8 mg/kg q7d.

[2] = system: lymphocytes in the spleen; experiment: Lymphocyte cell counts in spleen by FACS; format: in vivo, mouse; settings: vs untreated SOD1
Protocol: FIG. 5 is a graph showing cell counts in spleens of animals. SOD1 animals received a loading dose of 2.5 mg/kg fingolimod orally, then oral 1.8 mg/kg once weekly for 3 weeks. Lymphocyte counts were measured via FACS for various cell surface antigens in the spleen.
Lymphocytes were also measured in the spleens of SOD1 fingolimod treated mice and untreated SOD1 mice. After sacrifice, spleens were harvested from each animal and subjected to fluorescent activated cell sorting for each of the cell surface antigens: CD11b, CD28, CD3, CD4, CD86, […], and LY6G.

[3] = system: lymphocytes in peritoneal lavage fluid; experiment: Lymphocyte cell counts in peritoneal lavage fluid by FACS; format: in vivo, mouse; settings: vs untreated SOD1
Protocol: FIG. 4 is a graph showing cell counts in peritoneal lavage fluid. SOD1 animals received a loading dose of 2.5 mg/kg fingolimod orally, then oral 1.8 mg/kg once weekly for 3 weeks. Lymphocyte counts were measured via FACS for various cell surface antigens in the peritoneal lavage fluid.
SOD1 mice received a loading dose of 2.5 mg/kg fingolimod orally, then oral 1.8 mg/kg once weekly for 3 weeks. After sacrifice, several measurements were performed. To determine the lymphocyte cell count in peritoneal lavage fluid, peritoneal lavage fluid was removed after sacrifice of the animals and the peritoneal lavage fluid was subjected to fluorescent activated cell sorting for each of the cell surface antigens: CD11b, CD28, CD3, CD4, CD86, […], and LY6G. Lymphocyte cell count from SOD1 fingolimod treated mice was compared to untreated SOD1 mice in FIG. 4.

CD8+ lymphocytes = experiment: FACS analysis of circulating CD8+ lymphocytes in whole blood of SOD1 mice; format: in vivo, mouse; settings: for CD8+ cells in whole blood: 4 hours after third dose, control approximately 5%
Protocol: FIG. 3A is a fluorescent activated cell sorting (FACS) analysis showing the reduction of CD8+ lymphocytes in the circulation of male SOD1 mice that results from fingolimod treatment. A high dose of fingolimod (IP Loading Dose 2.5 mg/kg, Maintenance Dose 1.8 mg/kg q7d), a low dose of fingolimod (IP Loading Dose 0.44 mg/kg, Maintenance Dose 0.32 mg/kg) and a vehicle control group were tested over 14 days. Tissues were harvested 4 hours after the third dose. This time point was selected to best characterize the behavior of lymphocytes when circulating levels of the drug were near peak.
(§1) The following dosage regimen was used to determine the dose dependent effects of fingolimod in SOD1 mice: • Cohorts: • 1) SOD1 Fingolimod Treated “High Dose” (Load 2.5 mg/kg, 1.8 mg/kg Oral q7d) • 4 hour post final dose harvest • 7 day post final dose harvest • 2) SOD1 Fingolimod Treated “Low Dose” (Load 0.44 mg/kg, 0.32 mg/kg Oral q7d) • 4 hour post final dose harvest • 7 day post final dose harvest • 3) SOD1 Vehicle Control • 4 hour post final dose harvest • 7 day post final dose harvest
(§2) The predicted plasma fingolimod load for both the high dose and the low dose regimes were determined, see FIGS. 2A and 2B. Tissues were harvested 4 hours after the third fingolimod dose. This time point was selected to best characterize the behavior of lymphocytes in animals treated with fingolimod when circulating levels of the drug are near peak concentration.

[4] = system: lymphocytes, dendritic cells, regulatory T cells; settings: cited from earlier work
[5] = cited from earlier work
CD4+ lymphocytes = experiment: FACS analysis of circulating CD4+ lymphocytes in whole blood of SOD1 mice; format: in vivo, mouse; settings: for CD4+ cells in whole blood: 4 hours after third dose, control approximately 12%
Protocol: FIG. 3B is a FACS analysis showing the reduction of CD4+ lymphocytes in the circulation of male SOD1 mice that received fingolimod treatment. Dosing of fingolimod and time points were the same as in FIG. 3A.
as §1, §2

[6] = load 2.5 mg/kg oral then 1.8 mg/kg once weekly for 3 weeks
[7] = SOD1 animals, high and low dose groups
[8] = high dose (load 2.5 mg/kg, 1.8 mg/kg q7d)
[9] = low dose (load 0.44 mg/kg, 0.32 mg/kg q7d)
[10] = whole blood, vs vehicle control

CCCCCCCCc1ccc(CCC(N)(CO)CO)cc1 [fingolimod, 2-amino-2-(4-octylphenethyl)propane-1,3-diol]
Cmax ([1]; plasma, read-out: plasma Cmax): 185 ng/mL | half-life ([1]; plasma, read-out: plasma half-life (converted)): 31.4 h | Cmax ([1]; spinal cord, read-out: spinal cord Cmax): 630 ng/mL | half-life ([1]; spinal cord, read-out: spinal cord half-life (converted)): 89.2 h | lymphocyte count, CD11b [2, 6]: decreased lymphocyte count | lymphocyte count, CD3 ([2]; same regimen): decreased lymphocyte count | lymphocyte count, CD4 ([2]; same regimen): decreased lymphocyte count | lymphocyte count, CD28 ([2]; same regimen): decreased lymphocyte count | lymphocyte count, CD86 ([2]; same regimen): decreased lymphocyte count | lymphocyte count, CTLA34 ([2]; same regimen): decreased lymphocyte count | lymphocyte count, LY6G ([2]; same regimen): decreased lymphocyte count | lymphocyte count, CD11b [3, 6]: decreased lymphocyte count | lymphocyte count, CD4 ([3]; same regimen): decreased lymphocyte count | lymphocyte count, CD28 ([3]; same regimen): decreased lymphocyte count | lymphocyte count, CD86 ([3]; same regimen): decreased lymphocyte count | lymphocyte count, CTLA34 ([3]; same regimen): decreased lymphocyte count | lymphocyte count, LY6G ([3]; same regimen): decreased lymphocyte count | circulating CD8 positive cells in whole / peripheral blood (in words) (CD8+ lymphocytes; [7]): fewer; also recorded: transiently depletes | CD8+ cells in whole blood (CD8+ lymphocytes; [8]): less than 2% | CD8+ cells in whole blood (CD8+ lymphocytes; [9]): less than 2% | reduction in CD8+ cells (CD8+ lymphocytes; [10]): > 66% | reduction in CD8+ cells (fold) (CD8+ lymphocytes; [10]): over three-fold | circulating dendritic cells ([4]; Lan 2005, 2008): large increase | effect on lymphocyte population ([4]; Tsunemi 2010 and Zemann 2006): lymphopenia | regulatory T cells ([4]; Zhang et al. 2009): increase | CNS penetration and localization ([5]; Foster et al. 2007): CNS penetrant and localizes in the CNS white matter | brain/plasma ratio (in words) ([5]; Meno-Tetang 2006): high | plasma half-life (in words) ([5]; Meno-Tetang 2006): relatively long | circulating CD4 positive cells in whole / peripheral blood (in words) (CD4+ lymphocytes; [7]): fewer; also recorded: transiently depletes | CD4+ cells in whole blood (CD4+ lymphocytes; [8]): approximately 5% | CD4+ cells in whole blood (CD4+ lymphocytes; [9]): approximately 5% | reduction in CD4+ cells (CD4+ lymphocytes; [10]): at least 50% | reduction in CD4+ cells (fold) (CD4+ lymphocytes; [10]): over two-fold
